We go through 27 compounds from patent US7763656B2, “Use of Acetylamino benzoic acid compounds for nonsense suppression and the treatment of disease” (PTC Therapeutics, Inc., priority 2002, dated 2010).

Usually melting point stands for the temperature, or range, at which the solid turns liquid. In the case of `Cc1cc(OCC(=O)Nc2ccc(O)c(C(=O)O)c2)ccc1C(C)C` [Compound 56, 2-Hydroxy-5-[2-(4-isopropyl-3-methyl-phenoxy)-acetylamino] benzoic acid], the melting point lay within 101 to 103 °C.

`Cc1cc(OCC(=O)Nc2ccc(Cl)c(C(=O)O)c2)ccc1C(C)C` [Compound 57, 2-Chloro-5-[2-(4-isopropyl-3-methyl-phenoxy)-acetylamino]-benzoic acid]: the melting point was in the range of 174 to 175 °C. For `Cc1cc(OCC(=O)Nc2cc(F)c(F)c(C(=O)O)c2F)ccc1C(C)C` [Compound 58, 2,3,6-Trifluoro-5-[2-(4-isopropyl-3-methyl-phenoxy)-acetylamino]-benzoic acid] the value was 200 to 208 °C; for `Cc1cc(OCC(=O)Nc2cccc(C(=O)O)c2C)ccc1C(C)C` [Compound 59, 3-[2-(4-Isopropyl-3-methyl-phenoxy)-acetylamino]-2-methyl-benzoic acid], 148 to 171 °C; for `CCOC(=O)/C=C/c1ccc(OCC(=O)Nc2cccc(C(=O)O)c2)cc1` [Compound 60, 3-{2-[4-(2-Ethoxycarbonyl-vinyl)-phenoxy]-acetylamino}-benzoic acid], 202 to 203 °C.

As for `O=C(COc1ccc(OCc2ccccc2)cc1)Nc1cccc(C(=O)O)c1` [Compound 61, 3-[2-(4-Benzyloxy-phenoxy)-acetylamino]-benzoic acid], the melting point was 208 to 210 °C.

The compound `N#Cc1ccc(OCC(=O)Nc2cccc(C(=O)O)c2)cc1` [Compound 62, 3-[2-(4-Cyano-phenoxy)-acetylamino]-benzoic acid] came in with a melting point of 210 to 213 °C. To `O=C(COc1ccc(Nc2ccc([N+](=O)[O-])cn2)cc1)Nc1cccc(C(=O)O)c1` [Compound 63, 3-{2-[4-(5-Nitro-pyridin-2-ylamino)-phenoxy]-acetylamino}-benzoic acid] belongs 284 to 285 °C. For `O=C(COc1ccc(NC(=O)c2ccccc2)cc1)Nc1cccc(C(=O)O)c1` [Compound 64, 3-[2-(4-Benzoylamino-phenoxy)-acetylamino]-benzoic acid] the value was 260 to 262 °C; for `O=C(COc1ccc(Nc2ccccc2)cc1)Nc1cccc(C(=O)O)c1` [Compound 65, 3-[2-(4-Phenylamino-phenoxy)-acetylamino]-benzoic acid], 214 to 215 °C. For `O=C(COc1cccc(Nc2ccccc2)c1)Nc1cccc(C(=O)O)c1` [Compound 66, 3-[2-(3-Phenylamino-phenoxy)-acetylamino]-benzoic acid] the value was 189 to 191 °C; for `O=C(COc1ccc(Nc2ccc([N+](=O)[O-])cc2[N+](=O)[O-])cc1)Nc1cccc(C(=O)O)c1` [Compound 67, 3-{2-[4-(2,4-Dinitro-phenylamino)-phenoxy]-acetylamino}-benzoic acid], 237 to 238 °C. With `O=C(COc1ccc(Oc2ccc(C(F)(F)F)cc2)cc1)Nc1cccc(C(=O)O)c1` [Compound 68, 3-{2-[4-(4-Trifluoromethyl-phenoxy)-phenoxy]-acetylamino}-benzoic acid], the melting point lay within 189 to 190 °C.

For `O=C(COc1ccc(Cc2ccccc2)cc1)Nc1cccc(C(=O)O)c1` [Compound 69, 3-[2-(4-Benzyl-phenoxy)-acetylamino]-benzoic acid], the melting point was in the range of 205 to 209 °C. To `O=C(COc1ccc(Oc2ccccc2)cc1)Nc1cccc(C(=O)O)c1` [Compound 70, 3-[2-(4-Phenoxy-phenoxy)-acetylamino]-benzoic acid] belongs 202 to 205 °C; to `O=C(COc1ccc(CN2C(=O)c3ccccc3C2=O)cc1)Nc1cccc(C(=O)O)c1` [Compound 72], 238 to 240 °C. For `O=C(O)c1cccc(N2CCC(Oc3ccc(Cl)cc3)C2=O)c1` (stereo not drawn) [Compound 75, 3-[3-(4-Chloro-phenoxy)-2-oxo-pyrrolidin-1-yl]-benzoic acid] the value was 192 to 193 °C; for `O=C(O)c1cccc(N2CCC(Oc3ccc(Br)cc3)C2=O)c1` (stereo not drawn) [Compound 76, 3-[3-(4-Bromo-phenoxy)-2-oxo-pyrrolidin-1-yl]-benzoic acid], 196 to 197 °C. For `O=C(COc1ccc(Cc2nn[nH]n2)cc1)Nc1cccc(C(=O)O)c1` [Compound 78, 3-{2-[4-(2H-Tetrazol-5-ylmethyl)-phenoxy]-acetylamino}-benzoic acid] the value was 267 to 268 °C; for `CC(C)c1ccc(COC2CCN(c3cccc(C(=O)O)c3)C2=O)cc1` (stereo not drawn) [Compound 79, 3-[3-(4-Isopropyl-benzyloxy)-2-oxo-pyrrolidin-1-yl]-benzoic acid], 170 to 171 °C; for `CCc1ccc(OC2CCN(c3cccc(C(=O)O)c3)C2=O)cc1` (stereo not drawn) [Compound 83, 3-[3-(4-Ethyl-phenoxy)-2-oxo-pyrrolidin-1-yl]-benzoic acid], 194 to 195 °C. `Cc1ccc(OC2CCN(c3cccc(C(=O)O)c3)C2=O)cc1` (stereo not drawn) [Compound 84, 3-[3-(4-Methyl-phenoxy)-2-oxo-pyrrolidin-1-yl]-benzoic acid]: the melting point lay within 185 to 187 °C. For `Cc1c(F)cc(OC2CCN(c3cccc(C(=O)O)c3)C2=O)c(F)c1F` (stereo not drawn) [Compound 85, 3-[2-Oxo-3-(2,3,5-trifluoro-4-methyl-phenoxy)-pyrrolidin-1-yl]-benzoic acid] the value was 190 to 191 °C; for `O=C(O)c1cccc(N2CCC(Oc3ccc(OC(F)(F)F)cc3)C2=O)c1` (stereo not drawn) [Compound 86, 3-[2-Oxo-3-(4-trifluoromethoxy-phenoxy)-pyrrolidin-1-yl]-benzoic acid], 190 to 191 °C. `Cc1cc(OC2CCN(c3cccc(C(=O)O)c3)C2=O)cc(C(C)C)c1` (stereo not drawn) [Compound 87, 3-[3-(3-Isopropyl-5-methyl-phenoxy)-2-oxo-pyrrolidin-1-yl]-benzoic acid] came in with a melting point of 134 to 138 °C. To `Cc1ccc(OC2CCN(c3cccc(C(=O)O)c3)C2=O)cc1C` (stereo not drawn) [Compound 89, 3-[3-(3,4-Dimethyl-phenoxy)-2-oxo-pyrrolidin-1-yl]-benzoic acid] belongs 201 to 205 °C. For `Cc1cc(OCC(=O)Nc2cc(C(=O)O)ccc2Cl)ccc1C(C)C` [Example 4, 4-CHLORO-3-[2-(4-ISOPROPYL-3-METHYL-PHENOXY)-ACETYLAMINO]-BENZOIC ACID], the melting point lay in the range of 174 to 175 °C.
